Here are results for 1 compound from paper PMC2839369 (Chimia, 2009).

In this test the target is thymidine kinase from Thermotoga maritima (TmTK) (Thermotoga maritima, UniProt Q9WYN2). Kind of test: crystal structures and activity. It counts as binding. As to conditions: phosphoryl donor site.
Chain of thymidine kinase from Thermotoga maritima (TmTK) (Q9WYN2 whole entry): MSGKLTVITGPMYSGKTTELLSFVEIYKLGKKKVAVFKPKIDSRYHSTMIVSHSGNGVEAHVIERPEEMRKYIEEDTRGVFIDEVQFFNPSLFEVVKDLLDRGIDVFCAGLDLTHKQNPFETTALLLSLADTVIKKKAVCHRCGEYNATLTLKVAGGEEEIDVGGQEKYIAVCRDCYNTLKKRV

As for `Nc1ncnc2c1ncn2[C@@H]1O[C@H](COP(=O)(O)OP(=O)(O)OP(=O)(O)O)[C@@H](O)[C@H]1O` [ATP], the “crystal structures and activity (summary of authors' earlier work)” value is “large conformational change in the native homotetramer associated with ATP binding”.
